Reference: the NIST ThermoML archive (doi:10.1016/j.jct.2010.08.021)
Values joined by “and” are separate entries in the source; they are usually repeats but may differ in a detail not shown here. Identical values can stand only once.

Test: mn = molality of the nth substance listed, in mol/kg
Settings: 101 kPa, Liquid; for speed of sound: Sing-around technique in a fixed-path interferometer; for mass density: Vibrating tube method

N.N.O=C(O)CC(O)(CC(=O)O)C(=O)O [ammonium citrate, dibasic] + O
Settings	mass density	speed of sound
288.15 K, m1 = 0.0059	999.706 kg/m3	1467.4 m/s
288.15 K, m1 = 0.0071	999.822 kg/m3	1467.6 m/s
288.15 K, m1 = 0.0087	999.992 kg/m3	1467.9 m/s
288.15 K, m1 = 0.0129	1000.42 kg/m3	1468.5 m/s
288.15 K, m1 = 0.0177	1000.9 kg/m3	1469.1 m/s
288.15 K, m1 = 0.0222	1001.37 kg/m3	1469.7 m/s
288.15 K, m1 = 0.0266	1001.8 kg/m3	1470.2 m/s
288.15 K, m1 = 0.0311	1002.26 kg/m3	1470.9 m/s
288.15 K, m1 = 0.0354	1002.69 kg/m3	1471.5 m/s
288.15 K, m1 = 0.0423	1003.38 kg/m3	1472.4 m/s
288.15 K, m1 = 0.0446	1003.62 kg/m3	1472.8 m/s
288.15 K, m1 = 0.0468	1003.84 kg/m3	1473.1 m/s
288.15 K, m1 = 0.0492	1004.09 kg/m3	1473.4 m/s
288.15 K, m1 = 0.0562	1004.75 kg/m3	1474.3 m/s
288.15 K, m1 = 0.0645	1005.59 kg/m3	1475.4 m/s
288.15 K, m1 = 0.0748	1006.57 kg/m3	1476.8 m/s
288.15 K, m1 = 0.0797	1007.07 kg/m3	1477.4 m/s
288.15 K, m1 = 0.09	1008.08 kg/m3	1478.8 m/s
288.15 K, m1 = 0.5	1044.77 kg/m3 and 1044.77 kg/m3 and 1044.73 kg/m3	1529.2 m/s and 1529 m/s and 1529 m/s
288.15 K, m1 = 0.988	1082.62 kg/m3	1585.1 m/s
288.15 K, m1 = 0.997	1082.58 kg/m3	1584.9 m/s
288.15 K, m1 = 0.998	1082.63 kg/m3	1585 m/s
293.15 K, m1 = 0.0059	998.799 kg/m3	1483.5 m/s
293.15 K, m1 = 0.0071	998.916 kg/m3	1483.7 m/s
293.15 K, m1 = 0.0087	999.084 kg/m3	1483.9 m/s
293.15 K, m1 = 0.0129	999.5 kg/m3	1484.5 m/s
293.15 K, m1 = 0.0177	999.976 kg/m3	1485.1 m/s
293.15 K, m1 = 0.0222	1000.44 kg/m3	1485.7 m/s
293.15 K, m1 = 0.0266	1000.87 kg/m3	1486.2 m/s
293.15 K, m1 = 0.0311	1001.32 kg/m3	1486.8 m/s
293.15 K, m1 = 0.0354	1001.75 kg/m3	1487.4 m/s
293.15 K, m1 = 0.0423	1002.43 kg/m3	1488.3 m/s
293.15 K, m1 = 0.0446	1002.67 kg/m3	1488.7 m/s
293.15 K, m1 = 0.0468	1002.88 kg/m3	1488.9 m/s
293.15 K, m1 = 0.0492	1003.13 kg/m3	1489.3 m/s
293.15 K, m1 = 0.0562	1003.78 kg/m3	1490.1 m/s
293.15 K, m1 = 0.0645	1004.61 kg/m3	1491.2 m/s
293.15 K, m1 = 0.0748	1005.58 kg/m3	1492.5 m/s
293.15 K, m1 = 0.0797	1006.07 kg/m3	1493.1 m/s
293.15 K, m1 = 0.09	1007.07 kg/m3	1494.4 m/s
293.15 K, m1 = 0.5	1043.38 kg/m3 and 1043.38 kg/m3 and 1043.34 kg/m3	1542.8 m/s and 1542.6 m/s and 1542.7 m/s
293.15 K, m1 = 0.988	1080.92 kg/m3	1596.5 m/s
293.15 K, m1 = 0.997	1080.88 kg/m3	1596.4 m/s
293.15 K, m1 = 0.998	1080.93 kg/m3	1596.5 m/s
298.15 K, m1 = 0.0059	997.633 kg/m3	1497.7 m/s
298.15 K, m1 = 0.0071	997.747 kg/m3	1497.9 m/s
298.15 K, m1 = 0.0087	997.913 kg/m3	1498.1 m/s
298.15 K, m1 = 0.0129	998.325 kg/m3	1498.7 m/s
298.15 K, m1 = 0.0177	998.796 kg/m3	1499.3 m/s
298.15 K, m1 = 0.0222	999.256 kg/m3	1499.9 m/s
298.15 K, m1 = 0.0266	999.681 kg/m3	1500.3 m/s
298.15 K, m1 = 0.0311	1000.12 kg/m3	1501 m/s
298.15 K, m1 = 0.0354	1000.55 kg/m3	1501.5 m/s
298.15 K, m1 = 0.0423	1001.23 kg/m3	1502.4 m/s
298.15 K, m1 = 0.0446	1001.46 kg/m3	1502.7 m/s
298.15 K, m1 = 0.0468	1001.67 kg/m3	1503 m/s
298.15 K, m1 = 0.0492	1001.92 kg/m3	1503.3 m/s
298.15 K, m1 = 0.0562	1002.56 kg/m3	1504.1 m/s
298.15 K, m1 = 0.0645	1003.38 kg/m3	1505.2 m/s
298.15 K, m1 = 0.0748	1004.34 kg/m3	1506.4 m/s
298.15 K, m1 = 0.0797	1004.83 kg/m3	1507 m/s
298.15 K, m1 = 0.09	1005.81 kg/m3	1508.2 m/s
298.15 K, m1 = 0.5	1041.8 kg/m3 and 1041.8 kg/m3 and 1041.76 kg/m3	1554.8 m/s and 1554.6 m/s and 1554.6 m/s
298.15 K, m1 = 0.988	1079.09 kg/m3	1606.5 m/s
298.15 K, m1 = 0.997	1079.04 kg/m3	1606.4 m/s
298.15 K, m1 = 0.998	1079.09 kg/m3	1606.5 m/s
303.15 K, m1 = 0.0059	996.228 kg/m3	1510.1 m/s
303.15 K, m1 = 0.0071	996.341 kg/m3	1510.3 m/s
303.15 K, m1 = 0.0087	996.506 kg/m3	1510.5 m/s
303.15 K, m1 = 0.0129	996.916 kg/m3	1511 m/s
303.15 K, m1 = 0.0177	997.381 kg/m3	1511.6 m/s
303.15 K, m1 = 0.0222	997.837 kg/m3	1512.2 m/s
303.15 K, m1 = 0.0266	998.259 kg/m3	1512.6 m/s
303.15 K, m1 = 0.0311	998.698 kg/m3	1513.2 m/s
303.15 K, m1 = 0.0354	999.119 kg/m3	1513.8 m/s
303.15 K, m1 = 0.0423	999.789 kg/m3	1514.6 m/s
303.15 K, m1 = 0.0446	1000.02 kg/m3	1514.9 m/s
303.15 K, m1 = 0.0468	1000.23 kg/m3	1515.1 m/s
303.15 K, m1 = 0.0492	1000.48 kg/m3	1515.4 m/s
303.15 K, m1 = 0.0562	1001.11 kg/m3	1516.2 m/s
303.15 K, m1 = 0.0645	1001.92 kg/m3	1517.2 m/s
303.15 K, m1 = 0.0748	1002.88 kg/m3	1518.4 m/s
303.15 K, m1 = 0.0797	1003.36 kg/m3	1519 m/s
303.15 K, m1 = 0.09	1004.34 kg/m3	1520.2 m/s
303.15 K, m1 = 0.5	1040.04 kg/m3 and 1040.04 kg/m3 and 1040 kg/m3	1565.1 m/s and 1564.9 m/s and 1564.9 m/s
303.15 K, m1 = 0.988	1077.11 kg/m3	1615 m/s
303.15 K, m1 = 0.997	1077.07 kg/m3	1614.9 m/s
303.15 K, m1 = 0.998	1077.11 kg/m3	1615 m/s
308.15 K, m1 = 0.0059	994.605 kg/m3	1520.8 m/s
308.15 K, m1 = 0.0071	994.721 kg/m3	1520.9 m/s
308.15 K, m1 = 0.0087	994.88 kg/m3	1521.1 m/s
308.15 K, m1 = 0.0129	995.288 kg/m3	1521.6 m/s
308.15 K, m1 = 0.0177	995.753 kg/m3	1522.2 m/s
308.15 K, m1 = 0.0222	996.203 kg/m3	1522.8 m/s
308.15 K, m1 = 0.0266	996.623 kg/m3	1523.2 m/s
308.15 K, m1 = 0.0311	997.058 kg/m3	1523.8 m/s
308.15 K, m1 = 0.0354	997.475 kg/m3	1524.3 m/s
308.15 K, m1 = 0.0423	998.143 kg/m3	1525.1 m/s
308.15 K, m1 = 0.0446	998.37 kg/m3	1525.4 m/s
308.15 K, m1 = 0.0468	998.58 kg/m3	1525.6 m/s
308.15 K, m1 = 0.0492	998.825 kg/m3	1525.9 m/s
308.15 K, m1 = 0.0562	999.453 kg/m3	1526.7 m/s
308.15 K, m1 = 0.0645	1000.26 kg/m3	1527.7 m/s
308.15 K, m1 = 0.0748	1001.21 kg/m3	1528.8 m/s
308.15 K, m1 = 0.0797	1001.68 kg/m3	1529.4 m/s
308.15 K, m1 = 0.09	1002.65 kg/m3	1530.5 m/s
308.15 K, m1 = 0.5	1038.13 kg/m3 and 1038.12 kg/m3 and 1038.08 kg/m3	1573.9 m/s and 1573.7 m/s and 1573.7 m/s
308.15 K, m1 = 0.988	1075.01 kg/m3	1622.1 m/s
308.15 K, m1 = 0.997	1074.96 kg/m3	1622 m/s
308.15 K, m1 = 0.998	1075.01 kg/m3	1622.1 m/s
313.15 K, m1 = 0.0059	992.787 kg/m3	1529.8 m/s
313.15 K, m1 = 0.0071	992.9 kg/m3	1530 m/s
313.15 K, m1 = 0.0087	993.06 kg/m3	1530.2 m/s
313.15 K, m1 = 0.0129	993.463 kg/m3	1530.7 m/s
313.15 K, m1 = 0.0177	993.924 kg/m3	1531.3 m/s
313.15 K, m1 = 0.0222	994.373 kg/m3	1531.8 m/s
313.15 K, m1 = 0.0266	994.79 kg/m3	1532.2 m/s
313.15 K, m1 = 0.0311	995.224 kg/m3	1532.8 m/s
313.15 K, m1 = 0.0354	995.638 kg/m3	1533.3 m/s
313.15 K, m1 = 0.0423	996.299 kg/m3	1534.1 m/s
313.15 K, m1 = 0.0446	996.527 kg/m3	1534.3 m/s
313.15 K, m1 = 0.0468	996.735 kg/m3	1534.6 m/s
313.15 K, m1 = 0.0492	996.978 kg/m3	1534.8 m/s
313.15 K, m1 = 0.0562	997.604 kg/m3	1535.6 m/s
313.15 K, m1 = 0.0645	998.406 kg/m3	1536.6 m/s
313.15 K, m1 = 0.0748	999.345 kg/m3	1537.7 m/s
313.15 K, m1 = 0.0797	999.818 kg/m3	1538.2 m/s
313.15 K, m1 = 0.09	1000.78 kg/m3	1539.3 m/s
313.15 K, m1 = 0.5	1036.06 kg/m3 and 1036.02 kg/m3	1581.2 m/s and 1581 m/s and 1581 m/s
313.15 K, m1 = 0.988	1072.78 kg/m3	1628 m/s
313.15 K, m1 = 0.997	1072.73 kg/m3	1627.9 m/s
313.15 K, m1 = 0.998	1072.78 kg/m3	1628 m/s
